From the supplement of paper PMC8617591

What was measured:
[1] = tested on: Mycobacterium tuberculosis Erdman (autoluminescent); test: total FIC50 (Loewe) at 50% inhibition, three-drug combination (log2); higher = more antagonistic
Protocol: (§1)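 DiaMOND equipotent three-drug combination dose responses (10 doses, 1.5- or 2-fold spacing, centred on IC90) against autoluminescent M. tuberculosis Erdman in 8 in vitro models. Read-out is OD600, or luminescence for the intracellular and dormancy models, normalised to untreated wells. Hill-fit Einf, AUC25 and GRinf are potency metrics; FIC50 and FIC90 are total Loewe fractional inhibitory concentrations as log2 (negative = synergy).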

[2] = tested on: Mycobacterium tuberculosis Erdman (autoluminescent); test: total FIC90 (Loewe) at 90% inhibition, three-drug combination (log2); higher = more antagonistic
Protocol: as §1

[3] = tested on: Mycobacterium tuberculosis Erdman (autoluminescent); test: AUC25, normalised area under dose response up to IC25 (three-drug combination) (fraction (0-1)); higher = more potent at low dose
Protocol: as §1

[4] = tested on: Mycobacterium tuberculosis Erdman (autoluminescent); test: Einf, fitted maximum growth inhibition of three-drug combination (fraction); higher = stronger maximal inhibition
Protocol: as §1

[5] = tested on: Mycobacterium tuberculosis Erdman (autoluminescent); test: GRinf, maximum normalised growth rate inhibition (three-drug combination) (unitless (-1 to 1)); higher = less effect (negative = killing)
Protocol: as §1

CC(C)/N=c1\cc2n(-c3ccc(Cl)cc3)c3ccccc3nc-2cc1Nc1ccc(Cl)cc1 [clofazimine] + O=[N+]([O-])c1cn2c(n1)OC[C@@H](OCc1ccc(OC(F)(F)F)cc1)C2 [pretomanid] + NC(=O)c1cnccn1 [pyrazinamide]
Conditions	AUC25, [3]	Einf, [4]	GRinf, [5]	total FIC50, [1]	total FIC90, [2]
in vitro model: acidic pH 5.7, time point: constant (~7 days, model-specific)	0.116	0.799	-0.189	-0.0503	–
in vitro model: acidic pH 5.7, time point: terminal (~4-5 doublings, model-specific)	0.0855	0.963	-0.286	-0.211	-0.383
in vitro model: intracellular J774, time point: constant = terminal	–	1	-0.589	–	0.069

Conditions	AUC25, [3]	Einf, [4]	GRinf, [5]	total FIC50, [1]	total FIC90, [2]
in vitro model: butyrate, time point: constant (~7 days, model-specific)	0.117	0.927	-0.101	-0.205	1.93
in vitro model: butyrate, time point: terminal (~4-5 doublings, model-specific)	0.0918	0.967	-0.0731	-0.348	0.119
in vitro model: cholesterol 0.05 mM, time point: constant (~7 days, model-specific)	0.136	0.671	-0.153	–	–
in vitro model: cholesterol 0.05 mM, time point: terminal (~4-5 doublings, model-specific)	0.108	0.917	-0.206	1.04	–
in vitro model: cholesterol-high 0.2 mM, time point: constant (~7 days, model-specific)	0.0983	0.866	-0.131	0.247	–
in vitro model: cholesterol-high 0.2 mM, time point: terminal (~4-5 doublings, model-specific)	0.0869	0.997	-0.572	0.565	0.223
in vitro model: dormancy (butyrate + nitrate, low O2), time point: constant (~7 days, model-specific)	0.0942	0.933	0.139	-1.02	-2
in vitro model: dormancy (butyrate + nitrate, low O2), time point: terminal (~4-5 doublings, model-specific)	0.0486	0.989	-0.2	-0.553	-0.326
in vitro model: standard 7H9 glycerol, time point: constant = terminal	0.128	0.947	-0.335	-0.2	–
in vitro model: valerate, time point: constant (~7 days, model-specific)	0.125	0.874	-0.0963	0.359	–
in vitro model: valerate, time point: terminal (~4-5 doublings, model-specific)	0.0562	0.928	0.0185	0.629	1.17

CC(C)/N=c1\cc2n(-c3ccc(Cl)cc3)c3ccccc3nc-2cc1Nc1ccc(Cl)cc1 [clofazimine] + CC(=O)NC[C@H]1CN(c2ccc(N3CCOCC3)c(F)c2)C(=O)O1 [linezolid] + O=[N+]([O-])c1cn2c(n1)OC[C@@H](OCc1ccc(OC(F)(F)F)cc1)C2 [pretomanid]
Conditions	AUC25, [3]	Einf, [4]	GRinf, [5]	total FIC50, [1]	total FIC90, [2]
in vitro model: acidic pH 5.7, time point: constant (~7 days, model-specific)	0.106	0.845	-0.45	0.0449	–
in vitro model: acidic pH 5.7, time point: terminal (~4-5 doublings, model-specific)	0.0757	0.964	-0.318	1.03	0.257
in vitro model: intracellular J774, time point: constant = terminal	–	0.996	-0.884	–	1.09

Conditions	AUC25, [3]	Einf, [4]	GRinf, [5]	total FIC50, [1]	total FIC90, [2]
in vitro model: butyrate, time point: constant (~7 days, model-specific)	0.124	0.962	-0.311	0.534	1.52
in vitro model: butyrate, time point: terminal (~4-5 doublings, model-specific)	0.0915	0.98	-0.185	0.691	1.09
in vitro model: cholesterol 0.05 mM, time point: constant (~7 days, model-specific)	0.133	0.677	-0.0316	-0.375	–
in vitro model: cholesterol 0.05 mM, time point: terminal (~4-5 doublings, model-specific)	0.136	0.918	-0.14	0.13	2.05
in vitro model: cholesterol-high 0.2 mM, time point: constant (~7 days, model-specific)	0.116	0.922	-0.441	0.0459	1.18
in vitro model: cholesterol-high 0.2 mM, time point: terminal (~4-5 doublings, model-specific)	0.123	1	-0.938	-0.122	0.391
in vitro model: dormancy (butyrate + nitrate, low O2), time point: constant (~7 days, model-specific)	0.0841	0.925	0.221	0.87	1.32
in vitro model: dormancy (butyrate + nitrate, low O2), time point: terminal (~4-5 doublings, model-specific)	0.0337	0.986	-0.216	0.422	0.0103
in vitro model: standard 7H9 glycerol, time point: constant = terminal	0.128	0.951	-0.277	0.0629	0.915
in vitro model: valerate, time point: constant (~7 days, model-specific)	0.14	0.85	-0.138	0.292	–
in vitro model: valerate, time point: terminal (~4-5 doublings, model-specific)	0.0928	0.892	0.125	0.0202	1.37

COc1nc2ccc(Br)cc2cc1[C@@H](c1ccccc1)[C@@](O)(CCN(C)C)c1cccc2ccccc12 [bedaquiline] + NNC(=O)c1ccncc1 [isoniazid] + O=[N+]([O-])c1cn2c(n1)OC[C@@H](OCc1ccc(OC(F)(F)F)cc1)C2 [pretomanid]
Conditions	AUC25, [3]	Einf, [4]	GRinf, [5]	total FIC50, [1]	total FIC90, [2]
in vitro model: acidic pH 5.7, time point: constant (~7 days, model-specific)	0.13	0.923	-0.789	0.219	–
in vitro model: acidic pH 5.7, time point: terminal (~4-5 doublings, model-specific)	0.108	0.988	-0.439	0.209	0.765
in vitro model: intracellular J774, time point: constant = terminal	–	0.996	-0.588	–	0.892

Conditions	AUC25, [3]	Einf, [4]	GRinf, [5]	total FIC50, [1]	total FIC90, [2]
in vitro model: butyrate, time point: constant (~7 days, model-specific)	0.0753	0.947	-0.112	1.04	1.16
in vitro model: butyrate, time point: terminal (~4-5 doublings, model-specific)	0.0523	0.975	-0.0872	0.897	0.889
in vitro model: cholesterol 0.05 mM, time point: constant (~7 days, model-specific)	0.0895	0.722	-0.21	0.775	–
in vitro model: cholesterol 0.05 mM, time point: terminal (~4-5 doublings, model-specific)	0.0672	0.924	-0.246	6.17	0.608
in vitro model: cholesterol-high 0.2 mM, time point: constant (~7 days, model-specific)	0.0717	0.887	-0.196	0.37	–
in vitro model: cholesterol-high 0.2 mM, time point: terminal (~4-5 doublings, model-specific)	0.0327	0.992	-0.535	0.584	0.0623
in vitro model: dormancy (butyrate + nitrate, low O2), time point: constant (~7 days, model-specific)	0.0674	0.924	0.224	-0.188	-0.985
in vitro model: dormancy (butyrate + nitrate, low O2), time point: terminal (~4-5 doublings, model-specific)	0.0671	0.994	-0.159	-0.769	-0.523
in vitro model: standard 7H9 glycerol, time point: constant = terminal	0.0757	0.966	-0.103	0.177	0.0648
in vitro model: valerate, time point: constant (~7 days, model-specific)	0.129	0.886	-0.333	0.632	1.13
in vitro model: valerate, time point: terminal (~4-5 doublings, model-specific)	0.109	0.953	-0.161	0.661	1.97
